Consider one molecule from BindingDB's records for doi:10.1016/j.ejmech.2016.06.026 (Czech Academy of Sciences, 2016).

Experiment [1] in a line: Inhibition of reverse transcriptase Y181C mutant in HIV-1 3B infected in human MT4 cells assessed as inhibition of viral replication after 5 days by cell titer glo based luciferase reporter gene assay.
A short description of experiment [2]: Inhibition of HIV-1 3B reverse transcriptase K103N mutant infected in human MT4 cells assessed as inhibition of viral replication after 5 days by cell titer glo based luciferase reporter gene assay.

Each structure is given as a SMILES string.

As for `COc1cc(F)c(C(=O)c2ccnc(Nc3ccc(C#N)cc3)n2)c(F)c1`, the EC50 is more than 0.5 µM in experiment [1] and 0.347 µM in experiment [2].
